Source: PubChem BioAssay AID1963852 (Molecular Pharmacology Branch, DTP, NCI, 2024)

System: 282377-053-R-J1-PDC complex spheroid viability
Assay: Anticancer human tumor 282377-053-R-J1-PDC patient-derived colon adenocarcinoma cell line growth inhibition [POLQ]
Details: for IC50: curve of first compound; for viability, T/C: stronger effect = lower value
Protocol: Multicellular complex tumor spheroid response to Polymerase (POL) inhibitors (novobiocin, ART-558, RP6685) in combination with a variety of drugs and investigational agents in selected tumor cell lines
The POL inhibitors (novobiocin, ART-558, and RP6685) were evaluated both individually and in combination with standard of care and investigational anticancer small molecules within a complex spheroid model of solid tumors. . Complex spheroids include a stromal component modeled by human endothelial cells (HUVEC) and fibroblasts modeled by human mesenchymal stem cells (MSCs). The concentration ranges selected for each drug and investigational agent were based upon clinically achievable concentrations if the clinical Cmax of the agent was known.
Compounds. The drugs and investigational agents: novobiocin (NSC847541), ART-558 (NSC835418), RP-6685 (NSC848927), peposertib (NSC802822), ceralasertib (NSC780249), elimusertib (NSC800525), camonsertib (NSC841442), AZD-1390 (NSC803789), olaparib (NSC753686), talazoparib (NSC767125), rucaparib (NSC756644), sotorasib (NSC818433), MRTX-1133 (NSC836407), SN-38 (NSC673596), topotecan (NSC609699), epotoside (NSC141540), doxorubicin (NSC123127), gemcitabine (NSC613327), 5-fluorouracil (NSC19893), paclitaxel (NSC125973), vemurafenib (NSC761431), MSA-2 (NSC828583), SN-011 (NSC837082), adavosertib (NSC754352), prexasertib (NSC758257), carboplatin (NSC241240) and oxaliplatin (NSC266046), were obtained from the National Cancer Institute (NCI) Developmental Therapeutics Program Chemical Repository (21). The FDA-approved anticancer drug set is available from the Developmental Therapeutics Program at https://dtp.cancer.gov/organization/dscb/obtaining/. […] The stock solutions were prepared in dimethyl sulfoxide (DMSO, Sigma-Aldrich, St. Louis, MO, cat. D2650), except for the platinum compounds which were prepared in saline (Quality Biological, Gaithersburg, MD, cat. 114-055-101), at 800-fold the tested concentration and stored at -70 degrees C prior to their use. All drugs and investigational agents were tested over a range starting from a high concentration at or near the clinical Cmax and decreasing in half-log increments. If the clinical Cmax for an agent had not been determined, the highest concentration tested was 10 microM, except for SN-38, which was tested at a high concentration of 1 microM.
Cell Culture. All cells were maintained in an incubator at 37 degrees C and 5% CO2 with 95% humidity. The PDC lines were cultured according to standard operating procedures established by the NCI PDMR (https://pdmr.cancer.gov). Table 3 of the manuscript, lists the cell lines along with the number of the three cell types plated to form the mct-spheroids and media for tumor cell growth. After thawing, all PDC lines, except 997537-175-T-J1-PDC and 415267-285-R-J2-PDC, were cultured in Matrigel-coated flasks prepared with a working solution of 1X Ham's F-12 nutrient mix, without supplementation (Thermo Fisher Scientific, cat. 11765054), 100 U/mL penicillin-streptomycin (Thermo Fisher Scientific, cat. 15140122), and 2.5% Matrigel (Corning Inc., Corning, NY, cat. 354248) for the first three passages. The two PDC lines 997537-175-T-J1-PDC and 415267-285-R-J2-PDC were cultured on uncoated flasks. The 857933-349-R-J2-PDC line was cultured in 6C/Colon 1B media containing advanced DMEM/F-12 (Thermo Fisher Scientific, cat. 12634028), 10 mM HEPES (Thermo Fisher Scientific, cat. 15630080), 1X GlutaMAX supplement (Thermo Fisher Scientific, cat. 35050061), 0.1 mg/mL primocin (InvivoGen, San Diego, CA, cat. ant-pm-2), 10% defined fetal bovine serum, heat inactivated (HyClone Laboratories Inc., Logan, UT, cat. SH30070.03HI), 50% L-WRN conditioned media (ATCC, cat. CRL-3276), 1.25 mM N-Acetyl-L-cysteine (Sigma-Aldrich, cat. A9165), 10 mM nicotinamide (Sigma-Aldrich, cat. N0636), 1X B-27 supplement (Thermo Fisher Scientific, cat. 17504044), 1X N-2 supplement (Thermo Fisher Scientific, cat. […]
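Also: spheroids exposed to compounds for seven days.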
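For viability, T/C in this document: 100% = DMSO vehicle control viability.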

## O=C(Nc1ccc(O)c(NS(=O)(=O)c2ccc(F)cc2)c1)c1ccc(-c2ccccc2)cc1 + Cc1cccc(N(C)C(=O)C2C(O)CCN2c2nc(C)cc(C(F)(F)F)c2C#N)c1
Second compound 0.0316 µM
  IC50: > 10 µM
Second compound 0.1 µM
  IC50: > 10 µM
Second compound 0.316 µM
  IC50: > 10 µM
Second compound 1 µM
  IC50: > 10 µM
Second compound 3.16 µM
  IC50: > 10 µM
Second compound 10 µM
  IC50: > 10 µM
Second compound 0.0316 µM, first compound 0.0316 µM
  viability, T/C: 122%
Second compound 0.0316 µM, first compound 0.1 µM
  viability, T/C: 119%
Second compound 0.0316 µM, first compound 0.316 µM
  viability, T/C: 98.4%
Second compound 0.0316 µM, first compound 1 µM
  viability, T/C: 102%
Second compound 0.0316 µM, first compound 3.16 µM
  viability, T/C: 107%
Second compound 0.0316 µM, first compound 10 µM
  viability, T/C: 116%
Second compound 0.1 µM, first compound 0.0316 µM
  viability, T/C: 106%
Second compound 0.1 µM, first compound 0.1 µM
  viability, T/C: 117%
Second compound 0.1 µM, first compound 0.316 µM
  viability, T/C: 99.5%
Second compound 0.1 µM, first compound 1 µM
  viability, T/C: 108%
Second compound 0.1 µM, first compound 3.16 µM
  viability, T/C: 124%
Second compound 0.1 µM, first compound 10 µM
  viability, T/C: 118%
Second compound 0.316 µM, first compound 0.0316 µM
  viability, T/C: 104%
Second compound 0.316 µM, first compound 0.1 µM
  viability, T/C: 107%
Second compound 0.316 µM, first compound 0.316 µM
  viability, T/C: 106%
Second compound 0.316 µM, first compound 1 µM
  viability, T/C: 103%
Second compound 0.316 µM, first compound 3.16 µM
  viability, T/C: 116%
Second compound 0.316 µM, first compound 10 µM
  viability, T/C: 120%
Second compound 1 µM, first compound 0.0316 µM
  viability, T/C: 106%
Second compound 1 µM, first compound 0.1 µM
  viability, T/C: 110%
Second compound 1 µM, first compound 0.316 µM
  viability, T/C: 99.8%
Second compound 1 µM, first compound 1 µM
  viability, T/C: 109%
Second compound 1 µM, first compound 3.16 µM
  viability, T/C: 117%
Second compound 1 µM, first compound 10 µM
  viability, T/C: 119%
Second compound 3.16 µM, first compound 0.0316 µM
  viability, T/C: 112%
Second compound 3.16 µM, first compound 0.1 µM
  viability, T/C: 118%
Second compound 3.16 µM, first compound 0.316 µM
  viability, T/C: 104%
Second compound 3.16 µM, first compound 1 µM
  viability, T/C: 108%
Second compound 3.16 µM, first compound 3.16 µM
  viability, T/C: 126%
Second compound 3.16 µM, first compound 10 µM
  viability, T/C: 115%
Second compound 10 µM, first compound 0.0316 µM
  viability, T/C: 106%
Second compound 10 µM, first compound 0.1 µM
  viability, T/C: 105%
Second compound 10 µM, first compound 0.316 µM
  viability, T/C: 99.7%
Second compound 10 µM, first compound 1 µM
  viability, T/C: 97%
Second compound 10 µM, first compound 3.16 µM
  viability, T/C: 106%
Second compound 10 µM, first compound 10 µM
  viability, T/C: 115%
